Data published in PubChem BioAssay (NCI).
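How tested: cells in 96-well plates exposed to compound for 48 hours at five concentrations. TGI: concentration producing complete growth inhibition.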

Columns and labels:
Experiment in all cases: DTP human tumour cell line panel, 48 h
[1] = tested on: A498 renal
[2] = tested on: ACHN renal
[3] = tested on: HCC-2998 colon
[4] = tested on: HT29 colon
[5] = tested on: K-562 leukemia
[6] = tested on: LOX IMVI melanoma
[7] = tested on: MALME-3M melanoma
[8] = tested on: NCI-H23 lung
[9] = tested on: OVCAR-3 ovarian
[10] = tested on: RPMI-8226 leukemia
[11] = tested on: SN12C renal
[12] = tested on: SR leukemia
[13] = tested on: TK-10 renal
[14] = tested on: UO-31 renal
[15] = tested on: DU-145 prostate
[16] = tested on: MDA-MB-435

Measured: TGI

CCOC(=O)/C(=C/c1ccccc1)N(CC)CC
not listed: [15] | [16]
> 100 µM: all other assays above

CC1(C)OC2C(O1)[C@H]1OC(C(Cl)(Cl)Cl)=N[C@H]1C(I)[C@H]2N1C(=O)c2ccccc2C1=O (stereo partly specified)
> 100 µM: [1] | [2] | [4] | [5] | [6] | [8] | [10] | [11]
65.4 µM: [12]

O=C(c1nc2ccc(Cl)cc2[nH]c1=O)C(O)c1ccco1 (stereo unspecified)
not listed: [1] | [10] | [11] | [12] | [15] | [16]
> 100 µM: all other assays above

COc1cccc(C=C(C#N)C#N)c1OC
not listed: [1] | [6] | [16]
> 100 µM: all other assays above

O=C1CCCc2cc3c(cc21)CC1(C3)Cc2cc3c(cc2C1)C(=O)CCC3
7.41 µM: [4]
43.1 µM: [13]
35.8 µM: [2]
53.6 µM: [1]
> 62.6 µM: [7]
10.4 µM: [3]
19 µM: [15]
81.4 µM: [14]
> 42.2 µM: [5]
31.7 µM: [8]
> 85.3 µM: [11]
15.6 µM: [10]
7.2 µM: [9]
> 65.3 µM: [6]

COC(=O)[C@H]1C2CC[C@@H]3C45C[C@@H](c6ccoc6)O[C@@H]4O[C@@H](O2)C31CCC5C (stereo partly specified)
not listed: [12] | [15] | [16]
> 100 µM: all other assays above

CCOc1cc2cnc3c4cc(OC)c(OC)cc4ccc3c2cc1OC
not listed: [1] | [15] | [16]
> 100 µM: all other assays above

O=C1C2CCCCC2C(=O)N1n1c(Cc2ccccc2)n[nH]c1=O (stereo unspecified)
not listed: [15]
> 100 µM: all other assays above

O=[N+]([O-])c1ccc2nc(/C=C(\O)c3ccccc3)c(NC34CC5CC(CC(C5)C3)C4)nc2c1
not listed: [5] | [10] | [12]
> 10 µM: all other assays above

CC(C)C1COC(C(C)(C)C2=N[C@@H](C(C)C)CO2)=N1 (stereo partly specified)
not listed: [1] | [15] | [16]
> 100 µM: all other assays above

O=S(=O)(N1CCCCN(S(=O)(=O)C(F)(F)F)CCCN(S(=O)(=O)C(F)(F)F)CCCCN(S(=O)(=O)C(F)(F)F)CCCN(S(=O)(=O)C(F)(F)F)CCCCN(S(=O)(=O)C(F)(F)F)CCCN(S(=O)(=O)C(F)(F)F)CCCCN(S(=O)(=O)C(F)(F)F)CCC1)C(F)(F)F
> 100 µM: [10]
not listed: [12]
> 31.6 µM: all other assays above

COc1cc(CO)cc2c1[nH]c1ccccc12
not listed: [1] | [8] | [15] | [16]
> 25 µM: all other assays above

O=c1oc2ccccc2c(O)c1Cc1ccccc1Cc1c(O)c2ccccc2oc1=O
not listed: [3] | [12]
> 100 µM: all other assays above

NC(=S)N/N=C(/CCN1CCCC1)CC(C1=C(O)C2=CCCCC2OC1=O)c1ccccc1 (stereo unspecified)
not listed: [15] | [16]
> 100 µM: all other assays above

O=C(c1nc2ccc(Cl)cc2[nH]c1=O)C(O)c1cccc([N+](=O)[O-])c1 (stereo unspecified)
40 µM: [6]
40.4 µM: [4]
not listed: [15] | [16]
> 100 µM: all other assays above

COc1ccc(/C=N/NC(=O)CSc2nc(-c3ccccc3)c(-c3ccccc3)[nH]2)cc1OC
77.2 µM: [2]
70 µM: [1]
69.7 µM: [14]
39.7 µM: [9]
44.8 µM: [6]
94.4 µM: [11]
51.8 µM: [10]
> 100 µM: [13]
35.8 µM: [7]
76.7 µM: [8]
60.3 µM: [4]

COc1ccc([C@H]2[C@@H]3CCc4ccccc4C3=NN2C(N)=S)cc1OC
66.9 µM: [5]
72.4 µM: [12]
not listed: [15] | [16]
> 100 µM: all other assays above

COc1ccc(-n2nnc3c(C#N)c(C)c(-c4ccccc4)n3c2=O)cc1
> 33.2 µM: [3]
> 63.7 µM: [11]
44.6 µM: [9]
8 µM: [15]
not listed: [5] | [16]
> 100 µM: all other assays above

CC(=O)NC(CCCCN(Cc1ccccc1)C(=O)N(C)N=O)C(=O)NCc1ccccc1 (stereo unspecified)
not listed: [12] | [15] | [16]
> 100 µM: all other assays above

C#C[C@@H](OC(=O)c1ccc([N+](=O)[O-])cc1)[C@@H]1C[C@H]2O[C@@H]([C@H](C/C=C/CC)OC(=O)c3ccc([N+](=O)[O-])cc3)C[C@H]2O1
not listed: [12]
> 100 µM: all other assays above

CC(=O)Nc1ccc(S(=O)(=O)N/N=C(\C)CN2C(=O)c3ccccc3C2=O)cc1
not listed: [6] | [15] | [16]
> 100 µM: all other assays above

N#Cc1n[nH]n(-c2ccccc2)c1=O
not listed: [12]
> 100 µM: all other assays above

CNc1cc(Cl)ccc1C(=O)N1CCC[C@H]1CO
not listed: [3] | [5] | [9] | [10] | [12]
> 100 µM: all other assays above

Cc1ccc(C2SCc3nc4ccccc4n32)cc1 (stereo unspecified)
24.3 µM: [8]
40.6 µM: [6]
9.04 µM: [1]
25.1 µM: [13]
38.8 µM: [10]
5.01 µM: [16]
73.6 µM: [7]
22.6 µM: [14]
14.8 µM: [5]
79 µM: [4]
38.6 µM: [11]
not listed: [12]
> 100 µM: all other assays above

N#CC(C(=S)Nc1ccccc1)=C1Nc2ccccc2N1
not listed: [4] | [15] | [16]
> 10 µM: all other assays above

FC(F)(F)c1nc2c(ccc3[nH]c4c(-c5ccccc5)nccc4c32)[nH]1
> 75.9 µM: [6]
> 64.7 µM: [10]
40.7 µM: [12]
not listed: [15] | [16]
> 100 µM: all other assays above

CC(=O)OCc1ncccc1C(OC(C)=O)OC(C)=O
not listed: [3] | [10] | [15] | [16]
> 100 µM: all other assays above

CN(C)CCSC(=Nc1ccccc1)n1cccc1
not listed: [1] | [3] | [15] | [16]
> 100 µM: all other assays above

CC1=C(c2ccccc2)CON(c2ccccc2)C1
97.5 µM: [14]
not listed: [1] | [13] | [15] | [16]
> 100 µM: all other assays above

C[C@@H]1C[C@@H]2C(=O)N(c3ccccc3)C(=O)[C@@H]2c2[nH]c3ccc(Br)cc3c21
51.7 µM: [9]
not listed: [4] | [10] | [15] | [16]
> 100 µM: all other assays above

O[C@]12c3ccccc3C1CCCC2N1CCOCC1 (stereo partly specified)
not listed: [1] | [3] | [9] | [12] | [15] | [16]
> 100 µM: all other assays above

COc1c(OC)c(OC)c2c(=O)c(OC)c(-c3ccc4c(c3)OCO4)oc2c1OC
not listed: [10] | [12]
> 100 µM: all other assays above
